Where “and” joins values, the source holds several entries; their conditions need not be identical. Equal entries are not always repeated. Where two headings read alike, the source gives them in different places.
Test system: HIV-1 Env-pseudoviruses (208-strain panel)
Experiment: microbe, parasite or virus in culture
Assay type: cell-based
Design: Total Neutralized / % Neutralized: concentration or dose not given beside the values
Description: Neutralization was measured using single-round-of-infection HIV-1 Env-pseudoviruses and TZM-bl target cells (ARP Cat No. #8129)[44],[45]. Compounds were prepared at 400 μM with 4% DMSO (dimethyl sulfoxide) in PBS (phosphate-buffered saline) and diluted 20 times as the starting concentration for serial dilution in the neutralization assays. […] After incubation at 37 °C for 2 days, infection of target cells was measured by luciferase activity. Neutralization curves were fit by nonlinear regression using a five-parameter hill slope equation[45].

COc1cnc(-c2csc(C(=O)NCCO)n2)c2[nH]cc(C(=O)C(=O)N3CCC(=C(C#N)c4ccccc4)CC3)c12 [BMS-818251]
% Neutralized: 99% and 98% and 93% and 83% and 75% | Total Neutralized: 205 and 204 and 194 and 173 and 155 | IC50 (Human immunodeficiency virus 1, BAL, TZM-bl, BaL.26, clade B, read-out: IC50): 0.1 nM | IC50 (Human immunodeficiency virus 1, HXB2, TZM-bl, HXB2.DG, clade B, read-out: IC50): 0.1 nM | IC50 (Human immunodeficiency virus 1, SC422, TZM-bl, SC422.8, clade B, read-out: IC50): 0.2 nM | IC50 (Human immunodeficiency virus 1, TZM-bl): 0.3 nM | IC50 (Human immunodeficiency virus 1, TZM-bl, 45_01dG5, clade B, read-out: IC50): 0.2 nM | IC50 (Human immunodeficiency virus 1, TZM-bl, 0077.v1.c16, clade C, read-out: IC50): 0.2 nM | IC50 (Human immunodeficiency virus 1, TZM-bl, 89.6.DG, clade B, read-out: IC50): 0.1 nM | IC50 (Human immunodeficiency virus 1, TZM-bl, 96ZM651.02, clade C, read-out: IC50): 0.1 nM | IC50 (Human immunodeficiency virus 1, TZM-bl, 208-strain panel, read-out: Geometric mean IC50): 1.5 nM | IC50 (Human immunodeficiency virus 1, TZM-bl, 208-strain panel, read-out: Median IC50): 0.5 nM | IC50 (Human immunodeficiency virus 1, TZM-bl, 235-47, clade AG, read-out: IC50): 0.1 nM | IC50 (Human immunodeficiency virus 1, TZM-bl, 242-14 (Clade AG), read-out: IC50): 0.5 nM | IC50 (Human immunodeficiency virus 1, TZM-bl, 246-F3.C10.2, clade AC, read-out: IC50): 2 nM | IC50 (Human immunodeficiency virus 1, TZM-bl, 247-23 (Clade D), read-out: IC50): 0.5 nM | IC50 (Human immunodeficiency virus 1, TZM-bl, 0260.v5.c36, clade A, read-out: IC50): 1 nM | IC50 (Human immunodeficiency virus 1, TZM-bl, 263-8, clade AG, read-out: IC50): 0.1 nM | IC50 (Human immunodeficiency virus 1, TZM-bl, 269-12, clade AG, read-out: IC50): 662 nM | IC50 (Human immunodeficiency virus 1, TZM-bl, 271-11, clade AG, read-out: IC50): 1240 nM | IC50 (Human immunodeficiency virus 1, TZM-bl, 286.36, clade C, read-out: IC50): 0.1 nM | IC50 (Human immunodeficiency virus 1, TZM-bl, 288.38, clade C, read-out: IC50): 0.2 nM | IC50 (Human immunodeficiency virus 1, TZM-bl, 0330.v4.c3 (Clade A), read-out: IC50): 10 nM | IC50 (Human immunodeficiency virus 1, TZM-bl, 398-F1.F6.20, clade A, read-out: IC50): 11 nM | IC50 (Human immunodeficiency virus 1, TZM-bl, 426c (Clade C), read-out: IC50): 0.6 nM | IC50 (Human immunodeficiency virus 1, TZM-bl, 0439.v5.c1, clade A, read-out: IC50): 0.6 nM | IC50 (Human immunodeficiency virus 1, TZM-bl, 0815.v3.c3, clade ACD, read-out: IC50): 0.1 nM | IC50 (Human immunodeficiency virus 1, TZM-bl, 00836-2.5, clade C, read-out: IC50): 12200 nM | IC50 (Human immunodeficiency virus 1, TZM-bl, 0921.v2.c14, clade C, read-out: IC50): 0.1 nM | IC50 (Human immunodeficiency virus 1, TZM-bl, 928-28, clade AG, read-out: IC50): 46 nM | IC50 (Human immunodeficiency virus 1, TZM-bl, 001428-2.42, clade C, read-out: IC50): 14 nM | IC50 (Human immunodeficiency virus 1, TZM-bl, 3168.v4.c10, clade C, read-out: IC50): 0.1 nM | IC50 (Human immunodeficiency virus 1, TZM-bl, 3301.v1.c24, clade AC, read-out: IC50): 5 nM | IC50 (Human immunodeficiency virus 1, TZM-bl, 3326.v4.c3, clade CD, read-out: IC50): 0.1 nM | IC50 (Human immunodeficiency virus 1, TZM-bl, 3337.v2.c6, clade CD, read-out: IC50): 0.2 nM | IC50 (Human immunodeficiency virus 1, TZM-bl, 3365.v2.c20, clade A, read-out: IC50): 90 nM | IC50 (Human immunodeficiency virus 1, TZM-bl, 3415.v1.c1, clade A, read-out: IC50): 0.4 nM | IC50 (Human immunodeficiency virus 1, TZM-bl, 3468.v1.c12, clade AD, read-out: IC50): 0.5 nM | IC50 (Human immunodeficiency virus 1, TZM-bl, 3589.v1.c4, clade AC, read-out: IC50): 0.2 nM | IC50 (Human immunodeficiency virus 1, TZM-bl, 3637.v5.c3, clade C, read-out: IC50): 0.2 nM | IC50 (Human immunodeficiency virus 1, TZM-bl, 3718.v3.c11, clade A, read-out: IC50): 0.7 nM | IC50 (Human immunodeficiency virus 1, TZM-bl, 3817.v2.c59, clade CD, read-out: IC50): 8 nM | IC50 (Human immunodeficiency virus 1, TZM-bl, 3873.v1.c24, clade C, read-out: IC50): 0.1 nM | IC50 (Human immunodeficiency virus 1, TZM-bl, 3988.25, clade B, read-out: IC50): 0.1 nM | IC50 (Human immunodeficiency virus 1, TZM-bl, 5768.04, clade B, read-out: IC50): 0.3 nM | IC50 (Human immunodeficiency virus 1, TZM-bl, 6095.v1.c10, clade ACD, read-out: IC50): 0.1 nM | IC50 (Human immunodeficiency virus 1, TZM-bl, 6101.10, clade B, read-out: IC50): 0.1 nM | IC50 (Human immunodeficiency virus 1, TZM-bl, 6322.v4.c1, clade C, read-out: IC50): 42 nM | IC50 (Human immunodeficiency virus 1, TZM-bl, 6405.v4.c34, clade D, read-out: IC50): 257 nM | IC50 (Human immunodeficiency virus 1, TZM-bl, 6471.v1.c16, clade C, read-out: IC50): 0.1 nM | IC50 (Human immunodeficiency virus 1, TZM-bl, 6540.v4.c1, clade AC, read-out: IC50): 2 nM | IC50 (Human immunodeficiency virus 1, TZM-bl, 6545.v4.c1, clade AC, read-out: IC50): 0.5 nM | IC50 (Human immunodeficiency virus 1, TZM-bl, 6631.v3.c10, clade C, read-out: IC50): 0.1 nM | IC50 (Human immunodeficiency virus 1, TZM-bl, 6644.v2.c33, clade C, read-out: IC50): 2 nM | IC50 (Human immunodeficiency virus 1, TZM-bl, 6785.v5.c14, clade C, read-out: IC50): 6 nM | IC50 (Human immunodeficiency virus 1, TZM-bl, 6838.v1.c35, clade C, read-out: IC50): 0.4 nM | IC50 (Human immunodeficiency virus 1, TZM-bl, 7165.18 (Clade B), read-out: IC50): 11 nM | IC50 (Human immunodeficiency virus 1, TZM-bl, 0013095-2.11, clade C, read-out: IC50): 0.1 nM | IC50 (Human immunodeficiency virus 1, TZM-bl, 16055-2.3, clade C, read-out: IC50): 0.3 nM | IC50 (Human immunodeficiency virus 1, TZM-bl, 16845-2.22, clade C, read-out: IC50): 0.1 nM | IC50 (Human immunodeficiency virus 1, TZM-bl, 16936-2.21, clade C, read-out: IC50): 0.4 nM | IC50 (Human immunodeficiency virus 1, TZM-bl, 25710-2.43, clade C, read-out: IC50): 0.1 nM | IC50 (Human immunodeficiency virus 1, TZM-bl, 25711-2.4, clade C, read-out: IC50): 1 nM | IC50 (Human immunodeficiency virus 1, TZM-bl, 25925-2.22, clade C, read-out: IC50): 0.1 nM | IC50 (Human immunodeficiency virus 1, TZM-bl, 26191-2.48, clade C, read-out: IC50): 0.1 nM | IC50 (Human immunodeficiency virus 1, TZM-bl, 57128.vrc15, clade D, read-out: IC50): 0.6 nM | IC50 (Human immunodeficiency virus 1, TZM-bl, 191821.E6.1, clade D, read-out: IC50): 0.1 nM | IC50 (Human immunodeficiency virus 1, TZM-bl, 231965.c01, clade D, read-out: IC50): 0.1 nM | IC50 (Human immunodeficiency virus 1, TZM-bl, 620345.c1, clade AE, read-out: IC50): 49 nM | IC50 (Human immunodeficiency virus 1, TZM-bl, A07412M1.vrc12, clade D, read-out: IC50): 1 nM | IC50 (Human immunodeficiency virus 1, TZM-bl, AC10.29, clade B, read-out: IC50): 0.2 nM | IC50 (Human immunodeficiency virus 1, TZM-bl, ADA.DG, clade B, read-out: IC50): 0.1 nM | IC50 (Human immunodeficiency virus 1, TZM-bl, BB201.B42, clade A, read-out: IC50): 4 nM | IC50 (Human immunodeficiency virus 1, TZM-bl, BB539.2B13, clade A, read-out: IC50): 0.2 nM | IC50 (Human immunodeficiency virus 1, TZM-bl, BG1168.01, clade B, read-out: IC50): 1 nM | IC50 (Human immunodeficiency virus 1, TZM-bl, BI369.9A, clade A, read-out: IC50): 0.3 nM | IC50 (Human immunodeficiency virus 1, TZM-bl, BJOX002000.03.2, clade BC, read-out: IC50): 0.2 nM | IC50 (Human immunodeficiency virus 1, TZM-bl, BJOX009000.02.4, clade AE, read-out: IC50): 105 nM | IC50 (Human immunodeficiency virus 1, TZM-bl, BJOX010000.06.2, clade AE, read-out: IC50): 1660 nM | IC50 (Human immunodeficiency virus 1, TZM-bl, BJOX025000.01.1, clade AE, read-out: IC50): 178 nM | IC50 (Human immunodeficiency virus 1, TZM-bl, BJOX028000.10.3 (Clade AE), read-out: IC50): 236 nM | IC50 (Human immunodeficiency virus 1, TZM-bl, BL01.DG (Clade B), read-out: IC50): 2960 nM | IC50 (Human immunodeficiency virus 1, TZM-bl, BR07.DG, clade B, read-out: IC50): 641 nM | IC50 (Human immunodeficiency virus 1, TZM-bl, BR025.9, clade C, read-out: IC50): 880 nM | IC50 (Human immunodeficiency virus 1, TZM-bl, BS208.B1, clade A, read-out: IC50): 0.3 nM | IC50 (Human immunodeficiency virus 1, TZM-bl, BX08.16, clade B, read-out: IC50): 0.1 nM | IC50 (Human immunodeficiency virus 1, TZM-bl, C1080.c3, clade AE, read-out: IC50): 5380 nM | IC50 (Human immunodeficiency virus 1, TZM-bl, C2101.c1, clade AE, read-out: IC50): 1470 nM | IC50 (Human immunodeficiency virus 1, TZM-bl, C3347.c11, clade AE, read-out: IC50): 452 nM | IC50 (Human immunodeficiency virus 1, TZM-bl, C4118.09 (Clade AE), read-out: IC50): 59 nM | IC50 (Human immunodeficiency virus 1, TZM-bl, CAAN.A2, clade B, read-out: IC50): 0.1 nM | IC50 (Human immunodeficiency virus 1, TZM-bl, CAP45.G3, clade C, read-out: IC50): 4 nM | IC50 (Human immunodeficiency virus 1, TZM-bl, CAP210.E8 (Clade C), read-out: IC50): 14 nM | IC50 (Human immunodeficiency virus 1, TZM-bl, CAP244.D3, clade C, read-out: IC50): 0.1 nM | IC50 (Human immunodeficiency virus 1, TZM-bl, CE703010217.B6, clade C, read-out: IC50): 0.1 nM | IC50 (Human immunodeficiency virus 1, TZM-bl, CH038.12, clade BC, read-out: IC50): 92 nM | IC50 (Human immunodeficiency virus 1, TZM-bl, CH070.1, clade BC, read-out: IC50): 0.8 nM | IC50 (Human immunodeficiency virus 1, TZM-bl, CH117.4, clade BC, read-out: IC50): 0.4 nM | IC50 (Human immunodeficiency virus 1, TZM-bl, CH119.10 (Clade BC), read-out: IC50): 0.1 nM | IC50 (Human immunodeficiency virus 1, TZM-bl, CH181.12, clade BC, read-out: IC50): 0.1 nM | IC50 (Human immunodeficiency virus 1, TZM-bl, CM244.ec1, clade AE, read-out: IC50): 260 nM | IC50 (Human immunodeficiency virus 1, TZM-bl, CNE3, clade AE, read-out: IC50): 61 nM | IC50 (Human immunodeficiency virus 1, TZM-bl, CNE4, clade B, read-out: IC50): 4730 nM

Source: paper PMC6318274, “Lattice engineering enables definition of molecular features allowing for potent small-molecule inhibition of HIV-1 entry” (Nature Communications, 2019)
